# Laboratory results reported in patent US7129244B2, “Triazolopyrimidines and related analogs as HSP90-inhibitors” (Conforma Therapeutics Corporation, priority 2003, dated 2006).
# Tested on: HER2/Neu protein
# Assay: HER2 Degradation Assay
# Assay type: cell-based
# Conditions: Homo sapiens, MCF7, 16 h, MCF7 breast carcinoma cells, 16 h incubation; concentration at which there was 50% degradation of the HER2/Neu protein
# Description: MCF7 breast carcinoma cells (ATCC) were grown in Dulbecco's modified Eagle's medium (DMEM) containing 10% fetal bovine serum (FBS) and 10 mM HEPES, and plated in 24 well plates (50% confluent). Twenty-four hrs later (cells are 65–70% confluent), test compounds were added and incubated overnight for 16 h. […] The wells were washed with 1 mL phosphate buffered saline (PBS), and 200 μL trypsin was added to each well. After trypsinization was complete, 50 μL of FBS was added to each well. Then 200 μL cells was transferred to 96 well plates. The cells were pipetted up and down to obtain a single cell suspension. The plates were centrifuged at 2,500 rpm for 1 min using a Sorvall Legend RT™ tabletop centrifuge (Kendro Laboratory Products, Asheville, N.C.). The cells were then washed once in PBS containing 0.2% BSA and 0.2% sodium azide (BA buffer). Phycoerythrin (PE) conjugated anti HER2/Neu antibody (Becton Dickinson, #340552), or PE conjugated anti-keyhole limpet hemacyanin [KLH] (Becton Dickinson, #340761) control antibody was added at a dilution of 1:20 and 1:40 respectively (final concentration was 1 μg/mL) and the cells were pipeted up and down to form a single cell suspension, and incubated for 15 mins. The cells were washed twice with 200 μL BA buffer, and resuspended in 200 μL BA buffer, and transferred to FACSCAN tubes with an additional 250 μL BA buffer. Samples were analyzed using a FACSCalibur™ flow cytometer (Becton Dickinson, San Jose, Calif.) equipped with Argon-ion laser that emits 15 mW of 488 nm light for excitation of the PE fluorochrome. 10,000 events were collected per sample. A fluorescence histogram was generated and the mean fluorescence intensity (MFI) of each sample was determined using Cellquest software. The background was defined as the MFI generated from cells incubated with control IgG-PE, and was subtracted from each sample stained with the HER2/Neu antibody. Cells incubated with DMSO was always done as untreated controls since the compounds were resuspended in DMSO. Percent degradation of HER2 was calculated as follows: % HER2 degraded=[(MFl untreated cells−MFl treated cells)/MFl untreated cell]×100
# IC50 is defined as the concentration at which there was 50% degradation of the HER2/Neu protein.
row,SMILES,IC50 [µM]
1,"COc1c(C)cnc(Cn2nnc3c(Cl)nc(N)nc32)c1C [Example 1, 7-chloro-3-(4-methoxy-3,5-dimethyl-pyridin-2-ylmethyl)-3H-[1,2,3]triazolo[4,5-d]pyrimidin-5-ylamine]",0.4
2,"COc1cc(Cn2nnc3c(Cl)nc(N)nc32)cc(OC)c1OC [Example 5, 7-chloro-3-(3,4,5-trimethoxy-benzyl)-3H-[1,2,3]triazolo[4,5-d]pyrimidin-5-ylamine]",15
3,"COc1cc(Cn2nnc3c(Cl)nc(N)nc32)c(Cl)c(OC)c1OC [Example 6, 7-chloro-3-(2-chloro-3,4,5-trimethoxy-benzyl)-3H-[1,2,3]triazolo[4,5-d]pyrimidin-5-ylamine]",12
4,"COc1c(Cl)c(Cn2nnc3c(Cl)nc(N)nc32)c(Cl)c(OC)c1OC [Example 7, 7-Chloro-3-(2,6-dichloro-3,4,5-trimethoxy-benzyl)-3H-[1,2,3]triazolo[4,5-d]pyrimidin-5-ylamine]",4
5,"COc1cc(Cn2nnc3c(Cl)nc(N)nc32)c(Br)c(OC)c1OC [Example 8, 7-chloro-3-(2-bromo-3,4,5-trimethoxy-benzyl)-3H-[1,2,3]triazolo[4,5-d]pyrimidin-5-ylamine]",6.5

# The next lines start with the values.
row,IC50 [µM],SMILES
1,6.3,"COc1c(Br)c(Cn2nnc3c(Cl)nc(N)nc32)c(Br)c(OC)c1OC [Example 9, 7-Chloro-3-(2,6-dibromo-3,4,5-trimethoxy-benzyl)-3H-[1,2,3]triazolo[4,5-d]pyrimidin-5-ylamine]"
2,10,"COc1cc(Cn2nnc3c(Cl)nc(N)nc32)c(I)c(OC)c1OC [Example 10, 7-chloro-3-(2-iodo-3,4,5-trimethoxy-benzyl)-3H-[1,2,3]triazolo [4,5-d]pyrimidin-5-ylamine]"
3,8.5,"COc1cc(Cn2nnc3c(Cl)nc(N)nc32)c(Cl)c(OC)c1 [Example 12, 7-chloro-3-(2-chloro-3,5-dimethoxy-benzyl)-3H-[1,2,3]triazolo[4,5-d]pyrimidin-5-ylamine]"
4,16,"COc1cc(Cn2nnc3c(Cl)nc(N)nc32)c(Br)c(OC)c1 [Example 13, 7-chloro-3-(2-bromo-3,5-dimethoxy-benzyl)-3H-[1,2,3]triazolo[4,5-d]pyrimidin-5-ylamine]"
5,22,"COc1cc(Cn2nnc3c(Cl)nc(N)nc32)c(OC)cc1Br [Example 16, 7-chloro-3-(4-bromo-2,5-dimethoxy-benzyl)-3H-[1,2,3]triazolo[4,5-d]pyrimidin-5-ylamine]"
6,19,"COc1cc(Cl)c(OC)c(Cn2nnc3c(Cl)nc(N)nc32)c1 [Example 17, 7-chloro-3-(3-chloro-2,5-dimethoxy-benzyl)-3H-[1,2,3]triazolo[4,5-d]pyrimidin-5-ylamine]"

# Tested on: MCF7 breast carcinoma cells
# Assay: MTS Assay
# Assay type: cell-based
# Conditions: Homo sapiens, concentration giving 50% viable cell number
# Description: MTS assays measures the cytotoxicity of geldanamycin derivatives. MTS (3-(4,5-dimethylthiazol-2-yl)-5-(3-carboxymethoxyphenyl)-2-(4-sulfophenyl)-2H-tetrazolium is a tetrazolium dye that is converted to a formazan product by dehydrogenase enzymes of metabolically active cells (Corey, A. et al. “Use of an aqueous soluble tetrazolium/formazan assay for cell growth assays in culture,” Cancer Commun. 1991, 3, 207–212). Cells were seeded in 96 well plates at 2000 cells/well and allowed to adhere overnight in Dulbecco's modified Eagle's medium supplemented with 10% fetal bovine serum. The final culture volume was 100 μl. Viable cell number was determined by using the Celltiter 96 AQueous Non-radioactive Cell Proliferation Assay (Promega, Madison Wis.). The MTS/PMS (phenazine methosulfate) solution was mixed at a ratio of 20:1, and 20 μL was added per well to 100 μl of culture medium. After 2–4 hours, the formation of the formazan product was measured at 490 nm absorbance using a multiwell plate spectrophotometer. Background was determined by measuring the Abs 490 nm of cell culture medium and MTS-PMS in the absence of cells and was subtracted from all values. Percent viable cells was calculated as follows: % viable cells=(Abs at 490 nm treated cells/Abs at 490 nm untreated cells)×100 […]
row,IC50 [µM],SMILES
1,8,"COc1c(C)cnc(Cn2nnc3c(Cl)nc(N)nc32)c1C [Example 1, 7-chloro-3-(4-methoxy-3,5-dimethyl-pyridin-2-ylmethyl)-3H-[1,2,3]triazolo[4,5-d]pyrimidin-5-ylamine]"
